According to patent EP1121151B1, “ANTI-INFLAMMATORY ALPHA2, BETA1 INTEGRIN-RELATED SUBSTANCES OR ANTIBODIES” (Lindbom, Lennart, priority 1998, dated 2006):

System: PMN
Assay: Intravital time lapse videomicroscopy of PAF-stimulated PMN locomotion in rat mesenteric tissue in vivo
Conditions: rat mesentery, PAF 10^-7 M
Protocol: Intravital time lapse videomicroscopy of PMN locomotion in vivo. PMN locomotion in rat mesenteric tissue was studied through use of intravital time lapse videomicroscopy according to the protocol previously described in detail (Werr et al., supra). In brief, Wistar rats (200-250 g) were anesthetized with equal parts of fluanison/fentanyl (10/0.2 mg/ml; Hypnorm; Janssen-Cilag Ltd., Saunderton, UK) and midazolam (5 mg/ml; Dormicum; Hoffman-La Roche, Basel, Switzerland) diluted 1:1 with sterile water (2 ml/kg i.m.). Body temperature was maintained at 37° C by a heating pad connected to a rectal thermistor. After laparotomy, a segment of the ileum was exposed on a heated transparent pedestal to allow microscopic observation of the mesenteric microvasculature (Orthoplan microscope equipped with water immersion lens SW×25, NA 0.60; Leitz, Wetzlar, Germany). The microscopic image was televised and recorded on time lapse video (at 1/7 of normal speed). Analysis of leukocyte migration in the mesenteric tissue was made off line and the migration path of individual leukocytes was tracked with a digital image analyzer. […]

ACRGDGWMCG was tested, and the “effect on PMN migration at ten-fold higher concentrations” value (ten-fold higher concentrations than 500 µM, some experiments) was “did not yield different effects” and the “effect on PMN migration” value (topical administration, peptide 500 µM) was “without effect”.
